Measured values: US20120101093A1, “SUBSTITUTED IMIDAZO[1,2-A]PYRIDINE DERIVATIVES, PHARMACEUTICAL COMPOSITIONS, AND METHODS OF USE AS BETA-SECRETASE INHIBITORS” (HIGH POINT PHARMACEUTICALS, LLC, priority 2009, published 2012)

Each compound was assayed against T1, BACE-1 enzyme (Homo sapiens, UniProt P56817) (assay: BACE Fluorescence Resonance Energy Transfer (FRET) Assay). Settings: pH 4-4.5, 30 min pre-incubation, about 1.5 hours reaction.
T1 construct: purchased R & D Systems 931AS
T1 sequence (P56817 46-457 limits assumed): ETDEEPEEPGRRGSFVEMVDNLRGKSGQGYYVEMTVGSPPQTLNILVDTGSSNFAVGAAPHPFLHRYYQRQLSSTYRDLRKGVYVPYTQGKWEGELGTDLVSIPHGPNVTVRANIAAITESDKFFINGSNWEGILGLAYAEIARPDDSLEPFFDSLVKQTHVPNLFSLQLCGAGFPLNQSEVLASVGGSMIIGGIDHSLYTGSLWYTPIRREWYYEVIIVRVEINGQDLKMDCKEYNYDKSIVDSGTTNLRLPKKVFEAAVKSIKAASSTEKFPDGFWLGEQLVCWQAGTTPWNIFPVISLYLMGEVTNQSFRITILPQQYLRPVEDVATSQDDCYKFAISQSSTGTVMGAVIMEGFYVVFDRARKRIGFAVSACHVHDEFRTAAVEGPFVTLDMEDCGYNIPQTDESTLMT
Assay type: biochemical
Description: BACE Fluorescence Resonance Energy Transfer (FRET) Assay
In the following assay, the proteolytic activity of BACE is measured by observing cleavage of a fluorescent group from a peptide substrate containing a rhodamine fluorescent donor and a quenching acceptor.
The inhibitory activity of compounds of Formula (I) may be compared to a statine derived control inhibitor STA200 (MP Biomedical Cat. #STA-200). The cleavage reaction occurs when a BACE-1 substrate (Invitrogen, Cat. #P2986) was added to a reaction mixture containing BACE-1 enzyme (R & D Systems, Cat. #931AS) and allowed to proceed for about 1.5 hours. Fluorescence, used as a marker of BACE activity, is monitored using 540 nm excitation and 585 nm emission wavelengths (Envision, Perkin Elmer).
A typical assay reaction contains BACE-1 enzyme—in assay buffer (50 mM sodium acetate, pH 4-4.5, 0.01% CHAPS (3-[(3-Cholamidopropyl)dimethylammonio]-1-propanesulfonate), 0.0125% TritonX-100, 0.006% EDTA) which is pre-incubated for 30 minutes with test compound in 7.5% DMSO. The reaction is initiated with the addition of BACE-1 substrate in assay buffer and allowed to proceed for about 1.5 hours at room temperature. Assays are conducted in black 384-well microtiter plates and scanned at room temperature using 540 nm excitation and 585 nm emission wavelengths.
In some instances, the percent inhibition at a given concentration is reported instead of the IC50.
Work on `Cc1cccn2cc(C(=O)Nc3nc4cc(-c5ccc(C(F)(F)F)c(Cl)c5)ccc4[nH]3)nc12` [Example 93, 8-Methyl-imidazo[1,2-a]pyridine-2-carboxylic acid [5-(3-chloro-4-trifluoromethyl-phenyl)-1H-benzoimidazol-2-yl]-amide] yielded an IC50 of 1.78 µM. For `Cc1cccc2nc(C(=O)Nc3nc4cc(-c5cc(F)cc(C(F)(F)F)c5)ccc4[nH]3)cn12` [Example 94, 5-Methyl-imidazo[1,2-a]pyridine-2-carboxylic acid [5-(3-fluoro-5-trifluoromethyl-phenyl)-1H-benzoimidazol-2-yl]-amide], the IC50 was 0.42 µM. Work on `Cc1cccn2cc(C(=O)Nc3nc4cc(-c5cc(F)cc(C(F)(F)F)c5)ccc4[nH]3)nc12` [Example 95, 8-Methyl-imidazo[1,2-a]pyridine-2-carboxylic acid [5-(3-fluoro-5-trifluoromethyl-phenyl)-1H-benzoimidazol-2-yl]-amide] yielded an IC50 of 0.32 µM. `Cc1cccc2nc(C(=O)Nc3nc4cc(-c5cnc(N(C)C)nc5)ccc4[nH]3)cn12` [Example 96, 5-Methyl-imidazo[1,2-a]pyridine-2-carboxylic acid [5-(2-dimethylamino-pyrimidin-5-yl)-1H-benzoimidazol-2-yl]-amide] showed an IC50 of 1.17 µM. `Cc1cccc2nc(C(=O)Nc3nc4cc(-c5ccc(OC(F)(F)F)cc5)ccc4[nH]3)cn12` [Example 98, 5-Methyl-imidazo[1,2-a]pyridine-2-carboxylic acid [5-(4-trifluoromethoxy-phenyl)-1H-benzoimidazol-2-yl]-amide] showed an IC50 of 0.44 µM. `Cc1cccc2nc(C(=O)Nc3nc4cc(-c5ccc(C6CCCCC6)cc5)ccc4[nH]3)cn12` [Example 101, 5-Methyl-imidazo[1,2-a]pyridine-2-carboxylic acid [5-(4-cyclohexyl-phenyl)-1H-benzoimidazol-2-yl]-amide] was tested, and the IC50 was 0.3 µM. For `Cc1cccc2nc(C(=O)Nc3nc4cc(-c5ccc(O)c(F)c5)ccc4[nH]3)cn12` [Example 103, 5-Methyl-imidazo[1,2-a]pyridine-2-carboxylic acid [5-(3-fluoro-4-hydroxy-phenyl)-1H-benzoimidazol-2-yl]-amide], the IC50 was 1.74 µM. In the case of `CCc1cccc2nc(C(=O)Nc3nc4cc(-c5cccc(C(F)(F)F)c5)ccc4[nH]3)cn12` [Example 104, 5-Ethyl-imidazo[1,2-a]pyridine-2-carboxylic acid [5-(3-trifluoromethyl-phenyl)-1H-benzoimidazol-2-yl]-amide], the IC50 was 0.31 µM. Work on `COc1cc(F)ccc1-c1ccc2[nH]c(NC(=O)c3cn4c(C)cccc4n3)nc2c1` [Example 105, 5-Methyl-imidazo[1,2-a]pyridine-2-carboxylic acid [5-(4-fluoro-2-methoxy-phenyl)-1H-benzoimidazol-2-yl]-amide] yielded an IC50 of 1.79 µM. For `CCOc1ccc(-c2ccc3[nH]c(NC(=O)c4cn5c(C)cccc5n4)nc3c2)c(Cl)c1` [Example 108, 5-Methyl-imidazo[1,2-a]pyridine-2-carboxylic acid [5-(2-chloro-4-ethoxy-phenyl)-1H-benzoimidazol-2-yl]-amide], the IC50 was 0.39 µM. With `O=C(Nc1nc2cc(-c3cccc(C(F)(F)F)c3)ccc2[nH]1)c1cn2c(Br)cccc2n1` [Example 111, 5-Bromo-imidazo[1,2-a]pyridine-2-carboxylic acid [5-(3-trifluoromethyl-phenyl)-1H-benzoimidazol-2-yl]-amide] the IC50 was 0.22 µM. With `O=C(Nc1nc2cc(-c3cc(F)cc(Cl)c3)ccc2[nH]1)c1cn2cc(F)ccc2n1` [Example 113, 6-Fluoro-imidazo[1,2-a]pyridine-2-carboxylic acid [5-(3-chloro-5-fluoro-phenyl)-1H-benzoimidazol-2-yl]-amide] the IC50 was 0.46 µM. `CCOC(=O)c1ccn2cc(C(=O)Nc3nc4cc(-c5cc(F)cc(Cl)c5)ccc4[nH]3)nc2c1` [Example 114, 2-[5-(3-Chloro-5-fluoro-phenyl)-1H-benzoimidazol-2-ylcarbamoyl]-imidazo[1,2-a]pyridine-7-carboxylic acid ethyl ester] gave an IC50 of 0.29 µM. `O=C(Nc1nc2cc(-c3cc(F)cc(Cl)c3)ccc2[nH]1)c1cn2ccccc2n1` [Example 116, Imidazo[1,2-a]pyridine-2-carboxylic acid [5-(3-chloro-5-fluoro-phenyl)-1H-benzoimidazol-2-yl]-amide] showed an IC50 of 0.38 µM. Compound `Cc1cccc2nc(C(=O)Nc3nc4cc(C5CCCC5)ccc4[nH]3)cn12` [Example 118, 5-Methyl-imidazo[1,2-a]pyridine-2-carboxylic acid (5-cyclopentyl-1H-benzoimidazol-2-yl)-amide] has an IC50 of 0.99 µM. Compound `Cc1ccc(-c2ccc3[nH]c(NC(=O)c4cn5c(C)cccc5n4)nc3c2)cc1` [Example 120, 5-Methyl-imidazo[1,2-a]pyridine-2-carboxylic acid (5-p-tolyl-1H-benzoimidazol-2-yl)-amide] has an IC50 of 0.49 µM. In the case of `O=C(Nc1nc2cc(-c3cccc(C(F)(F)F)c3)ccc2[nH]1)c1cn2c(-c3ccccc3)cccc2n1` [Example 125, 5-Phenyl-imidazo[1,2-a]pyridine-2-carboxylic acid [5-(3-trifluoromethyl-phenyl)-1H-benzoimidazol-2-yl]-amide], the IC50 was 1.17 µM. `CN1CCN(c2cc(F)cn3cc(C(=O)Nc4nc5cc(-c6cc(F)cc(Cl)c6)ccc5[nH]4)nc23)CC1` [Example 128, 6-Fluoro-8-(4-methyl-piperazin-1-yl)-imidazo[1,2-a]pyridine-2-carboxylic acid [5-(3-chloro-5-fluoro-phenyl)-1H-benzoimidazol-2-yl]-amide] was tested, and the IC50 was 0.31 µM. `CCOc1cc(F)cn2cc(C(=O)Nc3nc4cc(-c5cc(F)cc(Cl)c5)ccc4[nH]3)nc12` [Example 129, 8-Ethoxy-6-fluoro-imidazo[1,2-a]pyridine-2-carboxylic acid [5-(3-chloro-5-fluoro-phenyl)-1H-benzoimidazol-2-yl]-amide] was tested, and the IC50 was 0.43 µM. With `O=C(Nc1nc2cc(-c3cc(F)cc(Cl)c3)ccc2[nH]1)c1cn2cc(F)cc(N3CCNCC3)c2n1` [Example 130, 6-Fluoro-8-piperazin-1-yl-imidazo[1,2-a]pyridine-2-carboxylic acid [5-(3-chloro-5-fluoro-phenyl)-1H-benzoimidazol-2-yl]-amide] the IC50 was 0.35 µM. `CN(C)c1cc(F)cn2cc(C(=O)Nc3nc4cc(-c5cc(F)cc(Cl)c5)ccc4[nH]3)nc12` [Example 131, 8-Dimethylamino-6-fluoro-imidazo[1,2-a]pyridine-2-carboxylic acid [5-(3-chloro-5-fluoro-phenyl)-1H-benzoimidazol-2-yl]-amide] gave an IC50 of 1.01 µM. With `CNc1cc(F)cn2cc(C(=O)Nc3nc4cc(-c5cccc(OC(F)(F)F)c5)ccc4[nH]3)nc12` [Example 132, 6-Fluoro-8-methylamino-imidazo[1,2-a]pyridine-2-carboxylic acid [5-(3-trifluoromethoxy-phenyl)-1H-benzoimidazol-2-yl]-amide] the IC50 was 1.04 µM. Work on `CN(C)c1cc(F)cn2cc(C(=O)Nc3nc4cc(-c5cccc(OC(F)(F)F)c5)ccc4[nH]3)nc12` [Example 133, 8-Dimethylamino-6-fluoro-imidazo[1,2-a]pyridine-2-carboxylic acid [5-(3-trifluoromethoxy-phenyl)-1H-benzoimidazol-2-yl]-amide] yielded an IC50 of 0.64 µM. `O=C(Nc1nc2cc(-c3cccc(OC(F)(F)F)c3)ccc2[nH]1)c1cn2cc(F)cc(N3CCNCC3)c2n1` [Example 134, 6-Fluoro-8-piperazin-1-yl-imidazo[1,2-a]pyridine-2-carboxylic acid [5-(3-trifluoromethoxy-phenyl)-1H-benzoimidazol-2-yl]-amide] gave an IC50 of 0.29 µM. `CN1CCN(c2cc(F)cn3cc(C(=O)Nc4nc5cc(-c6cccc(OC(F)(F)F)c6)ccc5[nH]4)nc23)CC1` [Example 135, 6-Fluoro-8-(4-methyl-piperazin-1-yl)-imidazo[1,2-a]pyridine-2-carboxylic acid [5-(3-trifluoromethoxy-phenyl)-1H-benzoimidazol-2-yl]-amide] was tested, and the IC50 was 0.2 µM. `COc1cc(F)cn2cc(C(=O)Nc3nc4cc(-c5cccc(OC(F)(F)F)c5)ccc4[nH]3)nc12` [Example 136, 6-Fluoro-8-methoxy-imidazo[1,2-a]pyridine-2-carboxylic acid [5-(3-trifluoromethoxy-phenyl)-1H-benzoimidazol-2-yl]-amide] showed an IC50 of 0.23 µM. Compound `CCOc1cccc2nc(C(=O)Nc3nc4cc(-c5cccc(C(F)(F)F)c5)ccc4[nH]3)cn12` [Example 137, 5-Ethoxy-imidazo[1,2-a]pyridine-2-carboxylic acid [5-(3-trifluoromethyl-phenyl)-1H-benzoimidazol-2-yl]-amide] has an IC50 of 1.39 µM. With `COCCNc1cc(F)cn2cc(C(=O)Nc3nc4cc(-c5cc(F)cc(Cl)c5)ccc4[nH]3)nc12` [Example 138, 6-Fluoro-8-(2-methoxy-ethylamino)-imidazo[1,2-a]pyridine-2-carboxylic acid [5-(3-chloro-5-fluoro-phenyl)-1H-benzoimidazol-2-yl]-amide] the IC50 was 1.27 µM. Compound `COCCCNc1cc(F)cn2cc(C(=O)Nc3nc4cc(-c5cc(F)cc(Cl)c5)ccc4[nH]3)nc12` [Example 139, 6-Fluoro-8-(3-methoxy-propylamino)-imidazo[1,2-a]pyridine-2-carboxylic acid [5-(3-chloro-5-fluoro-phenyl)-1H-benzoimidazol-2-yl]-amide] has an IC50 of 0.48 µM.
